Results as given in US20240180803A1, “HYALURONIC ACID-PRODUCTION PROMOTER” (NISSIN FOODS HOLDINGS CO., LTD., priority 2021, published 2024).

Tested on: normal human dermal fibroblasts (NHDF)
Test: Production capacity evaluation test of hyaluronic acid in cultured cells
Type: cell-based
Conditions: for Amount of hyaluronic acid produced obtained by subtracting NC / Measured value (amount of hyaluronic acid in the culture supernatant): NHDF culture supernatant; for Measured value (amount of hyaluronic acid in the culture supernatant): NC 942; for production capacity of hyaluronic acid with the NC taken as 100%: NHDF, 24 hours, culture supernatant
Description: Reagents were first prepared. […] Next, preparation of cultured cells was performed. In Example, the preparation was performed with normal human dermal fibroblasts (NHDF). First, using Dulbecco's Modified Eagle Medium (DMEM, manufactured by Gibco) to which 10% heat-inactivated FBS (manufactured by Biowest) and penicillin-streptomycin (manufactured by Invitrogen) were added, NHDF was cultured under the conditions of 37° C., 5% CO2. NHDF cells were then seeded to a 24-well plate at 1.0×10^5 cells/well. Thereafter, the NHDF cells were cultured for 72 hours under the conditions mentioned above. After the cell culture, the culture supernatant was replaced with DMEM containing no FBS. […] Note that in cultured cells, the concentration is not related to an absorption rate, which is applied to oral intake. […] After the addition of the reagent or reagents, the cells were cultured for 24 hours under the conditions of 37° C., 5% CO2. The medium was recovered after culturing, and the concentration of the hyaluronic acid in the culture supernatant was measured using Hyaluronan DuoSet Kit (manufactured by R&D Systems). Note that the cell culture without reagent was set as a negative control (NC) in Example. […] Here, the cell culture without reagent was set as a negative control (NC), and the amount (ng/mL) of hyaluronic acid produced was determined by subtracting the amount of hyaluronic acid produced of the NC from the amount of hyaluronic acid produced of each compound with reagent.

SMILES	Amount of hyaluronic acid produced obtained by subtracting NC (final concentration 1 mM)	Measured value (amount of hyaluronic acid in the culture supernatant) (final concentration 1 mM)	production capacity of hyaluronic acid with the NC taken as 100% (0.01 μM final concentration)	production capacity of hyaluronic acid with the NC taken as 100% (0.05 μM final concentration)	production capacity of hyaluronic acid with the NC taken as 100% (1 μM final concentration)	promotion of hyaluronic acid production (in words) (any concentration tested (0.001 to 1 mM))	promotion capacity of hyaluronic acid production (in words) (concentrations from 0.01 to 0.05 mM)	amount of hyaluronic acid produced compared with substances having similar chemical structures (in words) (final concentration 1 mM)	production capacity of hyaluronic acid with the NC taken as 100% (0.001 μM final concentration)	production capacity of hyaluronic acid with the NC taken as 100% (0.1 μM final concentration)	promotion capacity of hyaluronic acid production (in words) (concentrations of 0.01 mM or less and of 1 mM)
O=c1c(-c2ccc(O)cc2)coc2cc(O)ccc12 [Daidzein, daidzein, reference compound]	0 ng/mL	891 ng/mL	–	–	–	–	–	–	–	–	–
O=C(/C=C/c1ccc(O)cc1)c1ccc(O)cc1O [Isoliquiritigenin, isoliquiritigenin]	562.7006 ng/mL	1504 ng/mL	142%	138%	127%	promotion of hyaluronic acid production was confirmed	remarkably high promotion capacity of production	the highest	–	–	–
O=C1C[C@@H](c2ccc(O)cc2)Oc2cc(O)ccc21 [Liquiritigenin, liquiritigenin, reference compound]	164.725 ng/mL	1106 ng/mL	–	–	–	–	–	–	–	–	–
O=C(O)/C=C/c1ccc(O)cc1 [trans-p-coumaric Acid, Trans-p-coumaric acid, reference compound]	275.4202 ng/mL	1217 ng/mL	–	–	–	–	–	–	–	–	–
CCCCCCCCCCCCCCCCCCCC(=O)O [Arachidic acid, arachidic acid]	–	–	122%	102%	127%	–	–	–	111%	107%	high promotion capacity of production
